# Source: article PMC8802806, “Synthesis and Antitumor Activity of Erlotinib Derivatives Linked With 1,2,3-Triazole” (Frontiers in Pharmacology, 2022)
# Several values for one entry are separate records, joined by “and”; a condition that tells them apart may be missing. Equal values may be shown once. Read-outs that look alike come from different tables or passages of the source.
# Columns and labels:
# HeLa cells [1] = assay: Cell antiproliferative activity assay (CCK8); format: cell-based, human; conditions: for inhibition at 0.25 µM: 250 nM; for inhibition at 0.5 µM: 500 nM; for inhibition at 1 µM: 1000 nM; for inhibition at 2 µM: 2000 nM; for inhibition at 4 µM: 4000 nM; for inhibition at 8 µM: 8000 nM; for inhibition at 16 µM: 16000 nM
# Method: Cell antiproliferative activity was evaluated by the Cell Counting Kit-8 (CCK8, DOJINDO, Japan) assay. The cells were seeded at a density of 2,000 cells per well into 96-well microplate in 100 μl of growth medium. Cells were incubated at 37°C and 5% CO2 overnight. The next day, 100 μl per well of diluted inhibitor in growth medium was added with the final concentration from 0.1 nM to 100 μM. The cells were treated with DMSO as control. A series of dilutions are made in 0.1% DMSO in assay medium so that the final concentration of DMSO is 0.1% in all of treatments. Cells were incubated at 37°C and 5% CO2 for 48 h. Then, 10 μl of CCK8 was added to each well. The plates were incubated at 37°C for 2 h; after that, the plates were recorded by measuring absorbance at 450 nm with the reference wavelength of 630 nm using an EnVision Multilabel Reader (PerkinElmer). The IC50 values were calculated using GraphPad Prism 6.0 software and determined by the concentration causing a half-maximal percent activity. All assays were conducted with three parallel samples and three repetitions.
# HeLa cells [2] = assay: Flow cytometry detection for cell apoptosis (Annexin V/PI); format: cell-based, human; conditions: for Q1 (flow cytometry quadrant, Figure 4A) / Q4 (flow cytometry quadrant, Figure 4A) / Q2: FITC-A+ , PE-A+ Freq. of Parent / Q3: FITC-A+ , PE-A- Freq. of Parent: Annexin V/PI; for Q2: FITC-A+ , PE-A+ Freq. of Parent / Q3: FITC-A+ , PE-A- Freq. of Parent / Q2+Q3 (column without head, sum on percent scale): single samples
# Method: Cell-apoptosis analysis was carried out by flow cytometry using the Annexin V/PI apoptosis kit (Solarbio, China) according to the manufacturer’s manual. Briefly, HeLa (5 × 10^4/well) cells were seeded in 12-well plates for 24 h and then treated with 0.1% DMSO (as control) or various concentrations of compounds 4d, 4k, and 4l for 72 h, respectively. Cells were harvested, washed with PBS, and then incubated with 100 μl of 1 × Annexin V binding buffer containing 1 μl FITC Annexin V for 10 min at RT in the dark. Cells were incubated for another 5 min at room temperature (RT) in the dark after 1 μl PI was added. PBS (200 µl) was added to each tube for flow cytometry analysis (BriCyte E6). The percentages of apoptotic cells were analyzed using FlowJo soft.
# HeLa cells [3] = assay: Flow cytometry detection for cell cycle; format: cell-based, human; conditions: 6 μM, 48 h
# Method: HeLa (5 × 10^4/well) cells were seeded in 12-well plates for 24 h and then treated with 0.1% DMSO (as control), compounds 4d, 4k, and 4l of various concentrations for 48 h, respectively. The treated cells were harvested, washed with PBS, and then stained using the cell-cycle staining kit [Multisciences (Lianke) Biotech] according to the manufacturer’s manual. The distribution of cell-cycle phases with different DNA contents was determined by flow cytometry (BriCyte E6) and analyzed using ModFit LT software.
# HeLa cells [4] = assay: Colony formation assay; format: cell-based, human
# Method: HeLa cells were seeded in six-well plates at the density of 500/well for 24 h, and then treated with 0.1% DMSO (as control), various concentrations of compounds 4d, 4k, and 4l, respectively. The cells were incubated for 2 weeks in a 5% CO2 environment at 37°C for colony formation. The media was gently removed from each of the plates, and then each plate was washed with PBS twice. The colonies were fixed with 4% polyformaldehyde for 10 min and then wash the cells with ddH2O twice. Stain with 1 ml Crystal Violet Staining Solution (Beyotime, China) for 10 min. Wash excess crystal violet with ddH2O and allow dishes to dry. Take pictures of the plate and count the colonies.
# [5] = HeLa cells, CCK8, 48 h, mean ± SD, n = 3, read-out: IC50 (μM) HeLa
# [6] = Homo sapiens, HeLa, 48 h, HeLa cells, CCK8, 48 h, mean ± SD, n = 3, read-out: IC50 (μM) HeLa
# [7] = Homo sapiens, HeLa, HELA 2000cells/well, supplement DataSheet2, Repeat1, read-out: IC50 Repeat1
# [8] = Homo sapiens, HeLa, HELA 2000cells/well, supplement DataSheet2, Repeat 2, read-out: IC50 Repeat 2
# [9] = Homo sapiens, HeLa, HELA 2000cells/well, supplement DataSheet2, mean of two repeats ± SD, read-out: IC50 mean±SD
# [10] = Homo sapiens, HELA 2000cells/well, Repeat1, read-out: Inhibition (%) Repeat1
# [11] = Homo sapiens, HELA 2000cells/well, Repeat2, read-out: Inhibition (%) Repeat2
structure (smiles),measurement,setting,value
"COCCOc1cc2ncnc(Nc3cccc(-c4cn(-c5ccccc5OC)nn4)c3)c2cc1OCCOC [Compound 4k, [6,7-Bis-(2-methoxy-ethoxy)-quinazolin-4-yl]-{3-[1-(2-methoxy-phenyl)-1H-[1,2,3]triazol-4-yl]-phenyl}-amine]",IC50,HeLa cells [1]; [5],4.16 ± 0.48 µM
same,IC50,HeLa cells [1]; [6],3.79 µM
same,IC50,HeLa cells [1]; [7],3.72 µM
same,IC50,HeLa cells [1]; [8],4.68 µM
same,IC50,HeLa cells [1]; [9],4.16 ± 0.481 µM
same,inhibition at 0.25 µM,HeLa cells [1]; [10],3.39%
same,inhibition at 0.25 µM,HeLa cells [1]; [11],0%
same,inhibition at 0.5 µM,HeLa cells [1]; [10],4.2%
same,inhibition at 0.5 µM,HeLa cells [1]; [11],6.96%
same,inhibition at 1 µM,HeLa cells [1]; [10],8.3%
same,inhibition at 1 µM,HeLa cells [1]; [11],7.05%
same,inhibition at 2 µM,HeLa cells [1]; [10],22.3%
same,inhibition at 2 µM,HeLa cells [1]; [11],10.7%
same,inhibition at 4 µM,HeLa cells [1]; [10],48.8%
same,inhibition at 4 µM,HeLa cells [1]; [11],43.1%
same,inhibition at 8 µM,HeLa cells [1]; [10],90.1%
same,inhibition at 8 µM,HeLa cells [1]; [11],73.9%
same,inhibition at 16 µM,HeLa cells [1]; [10],96.8%
same,inhibition at 16 µM,HeLa cells [1]; [11],97%
same,"Q1 (flow cytometry quadrant, Figure 4A)","HeLa cells [2]; 3 μM, 72 h",2.64%
same,"Q4 (flow cytometry quadrant, Figure 4A)","HeLa cells [2]; 3 μM, 72 h",93.0%
same,"Q2: FITC-A+ , PE-A+ Freq. of Parent","HeLa cells [2]; 3 μM, 72 h",3.63%
same,"Q3: FITC-A+ , PE-A- Freq. of Parent","HeLa cells [2]; 3 μM, 72 h",0.75%
same,"Q1 (flow cytometry quadrant, Figure 4A)","HeLa cells [2]; 6 μM, 72 h",8.66%
same,"Q4 (flow cytometry quadrant, Figure 4A)","HeLa cells [2]; 6 μM, 72 h",64.2%
same,"Q2: FITC-A+ , PE-A+ Freq. of Parent","HeLa cells [2]; 6 μM, 72 h",21.9%
same,"Q3: FITC-A+ , PE-A- Freq. of Parent","HeLa cells [2]; 6 μM, 72 h",5.30%
same,"Q1 (flow cytometry quadrant, Figure 4A)","HeLa cells [2]; 12 μM, 72 h",24.0%
same,"Q4 (flow cytometry quadrant, Figure 4A)","HeLa cells [2]; 12 μM, 72 h",11.6%
same,"Q2: FITC-A+ , PE-A+ Freq. of Parent","HeLa cells [2]; 12 μM, 72 h",61.9%
same,"Q3: FITC-A+ , PE-A- Freq. of Parent","HeLa cells [2]; 12 μM, 72 h",2.53%
same,cell cycle phase at which HeLa cells were arrested,HeLa cells [3],both G0/G1 and G2/M
same,melting point,,87 to 90 °C
"COCCOc1cc2ncnc(Nc3cccc(-c4cn(-c5ccc(C)cc5)nn4)c3)c2cc1OCCOC [Compound 4l, [6,7-Bis-(2-methoxy-ethoxy)-quinazolin-4-yl]-[3-(1-p-tolyl-1H-[1,2,3]triazol-4-yl)-phenyl]-amine]",IC50,HeLa cells [1]; [5],4.51 ± 0.08 µM
same,IC50,HeLa cells [1]; [6],4.36 µM
same,IC50,HeLa cells [1]; [7],4.41 µM
same,IC50,HeLa cells [1]; [8],4.58 µM
same,IC50,HeLa cells [1]; [9],4.51 ± 0.083 µM
same,inhibition at 0.25 µM,HeLa cells [1]; [10],2.96%
same,inhibition at 0.25 µM,HeLa cells [1]; [11],0%
same,inhibition at 0.5 µM,HeLa cells [1]; [10],5.57%
same,inhibition at 0.5 µM,HeLa cells [1]; [11],0.522%
same,inhibition at 1 µM,HeLa cells [1]; [10],8.62%
same,inhibition at 1 µM,HeLa cells [1]; [11],4.7%
same,inhibition at 2 µM,HeLa cells [1]; [10],12.6%
same,inhibition at 2 µM,HeLa cells [1]; [11],6.88%
same,inhibition at 4 µM,HeLa cells [1]; [10],37.2%
same,inhibition at 4 µM,HeLa cells [1]; [11],32%
same,inhibition at 8 µM,HeLa cells [1]; [10],96.7%
same,inhibition at 8 µM,HeLa cells [1]; [11],96.9%
same,inhibition at 16 µM,HeLa cells [1]; [10],99%
same,inhibition at 16 µM,HeLa cells [1]; [11],98.9%
same,"Q1 (flow cytometry quadrant, Figure 4A)","HeLa cells [2]; 3 μM, 72 h",3.78%
same,"Q4 (flow cytometry quadrant, Figure 4A)","HeLa cells [2]; 3 μM, 72 h",84.8%
same,"Q2: FITC-A+ , PE-A+ Freq. of Parent","HeLa cells [2]; 3 μM, 72 h",9.69%
same,"Q3: FITC-A+ , PE-A- Freq. of Parent","HeLa cells [2]; 3 μM, 72 h",1.71%
same,"Q2: FITC-A+ , PE-A+ Freq. of Parent","HeLa cells [2]; 3 μM, 72 h, listed as e12",9.69% and 6.86% and 8.36%
same,"Q3: FITC-A+ , PE-A- Freq. of Parent","HeLa cells [2]; 3 μM, 72 h, listed as e12",1.71% and 1.25% and 0.95%
same,"Q2+Q3 (column without head, sum on percent scale)","HeLa cells [2]; 3 μM, listed as e12",11.4 and 8.11 and 9.31
same,"Q1 (flow cytometry quadrant, Figure 4A)","HeLa cells [2]; 6 μM, 72 h",3.76%
same,"Q4 (flow cytometry quadrant, Figure 4A)","HeLa cells [2]; 6 μM, 72 h",83.5%
same,"Q2: FITC-A+ , PE-A+ Freq. of Parent","HeLa cells [2]; 6 μM, 72 h",11.1%
same,"Q3: FITC-A+ , PE-A- Freq. of Parent","HeLa cells [2]; 6 μM, 72 h",1.72%
same,"Q2: FITC-A+ , PE-A+ Freq. of Parent","HeLa cells [2]; 6 μM, 72 h, listed as e12",8.62% and 11.1% and 7.43%
same,"Q3: FITC-A+ , PE-A- Freq. of Parent","HeLa cells [2]; 6 μM, 72 h, listed as e12",1.73% and 1.72% and 1.32%
same,"Q2+Q3 (column without head, sum on percent scale)","HeLa cells [2]; 6 μM, listed as e12",10.35 and 12.82 and 8.75
same,"Q1 (flow cytometry quadrant, Figure 4A)","HeLa cells [2]; 12 μM, 72 h",4.50%
same,"Q4 (flow cytometry quadrant, Figure 4A)","HeLa cells [2]; 12 μM, 72 h",78.5%
same,"Q2: FITC-A+ , PE-A+ Freq. of Parent","HeLa cells [2]; 12 μM, 72 h",14.1%
same,"Q3: FITC-A+ , PE-A- Freq. of Parent","HeLa cells [2]; 12 μM, 72 h",2.91%
same,"Q2: FITC-A+ , PE-A+ Freq. of Parent","HeLa cells [2]; 12 μM, 72 h, listed as e12",14.8% and 14.1% and 12.5%
same,"Q3: FITC-A+ , PE-A- Freq. of Parent","HeLa cells [2]; 12 μM, 72 h, listed as e12",2.43% and 2.91% and 2.33%
same,"cell apoptosis in HeLa cells, percentage","HeLa cells [2]; 12 μM, 72 h, three independent experiments",16.36%
same,"Q2+Q3 (column without head, sum on percent scale)","HeLa cells [2]; 12 μM, listed as e12",17.23 and 17.01 and 14.83
same,Number of Colonies /well,"HeLa cells [4]; 6 uM, repeats 1-3",291 and 246 and 217
same,effect on cell colony formation,"HeLa cells [4]; 12 μM, 2 weeks",entirely inhibited
same,melting point,,95 to 98 °C
